Assay [1] concerns the target T1, recombinant human 17β-HSD1 (Homo sapiens, UniProt P14061).
T1 construct: made in house; host or cells: Sd9 (Sf9) insect cells, baculovirus (Bac to Bac Expression System); microsomal fraction
T1 sequence (P14061 1-328): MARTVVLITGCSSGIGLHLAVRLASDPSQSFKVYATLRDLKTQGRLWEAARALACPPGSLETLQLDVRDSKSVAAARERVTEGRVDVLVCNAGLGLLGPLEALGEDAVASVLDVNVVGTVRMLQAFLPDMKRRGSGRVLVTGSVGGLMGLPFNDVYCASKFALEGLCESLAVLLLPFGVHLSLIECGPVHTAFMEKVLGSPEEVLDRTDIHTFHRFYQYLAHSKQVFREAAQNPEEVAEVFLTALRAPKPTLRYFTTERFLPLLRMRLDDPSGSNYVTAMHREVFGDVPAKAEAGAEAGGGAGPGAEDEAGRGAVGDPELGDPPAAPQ
Put plainly: Inhibition of recombinant human 17β-HSD1 (conversion of 3H-estrone to estradiol, HPLC). It is filed as biochemical. To be noted: inhibitor 1 μM; 30 nM estrone, 1 mM NADPH, 30 min at RT; read-out: 17β-HDS1 Inhibition % at 1 μM. The method, then:
17β-HSD1 production and isolation: Recombinant baculovirus was generated by the “Bac to Bac Expression System” (Invitrogen). Recombinant bacmid was transfected to Sd9 insect cells using “Cellfectin Reagent” (Invitrogen). 60 h later cells were harvested; the microsomal fraction was isolated as described by Puranen, T. J., Poutanen, M. H., Peltoketo, H. E., Vihko, P. T. and Vihko, R. K. (1994) Site-directed mutagenesis of the putative active site of human 17 β-hydroxysteroid dehydrogenase type 1. Biochem. J. 304: 289-293. Aliquots were stored frozen until determination of enzymatic activity.
Assay—Inhibition of recombinant human 17β-HSD1: Recombinant protein (1 μg/ml) was incubated in 20 mM KH2PO4 pH 7.4 with 30 nM estrone (including 800 000 cpm/ml of ^3H-estrone) and 1 mM NADPH for 30 min at RT, in the presence of the potential inhibitor at concentrations 1 μM or 0.1 μM. Inhibitor stock solutions were prepared in DMSO. Final concentration of DMSO was adjusted to 1% in all samples. The enzyme reaction was stopped by addition of 10% trichloroacetic acid (final concentration). Samples were centrifuged in a microtiter plate at 4000 rpm for 10 min. Supernatants were applied to reverse phase HPLC on a Waters Symmetry C18 column, equipped with a Waters Sentry Guard column. Isocratic HPLC runs were performed at RT at a flow rate of 1 ml/min in acetonitrile:water 48:52 as running solvent. Radioactivity was monitored in the eluate by a Packard Flow Scintillation Analyzer. Total radioactivity for estrone and estradiol were determined in each sample and percent conversion of estrone to estradiol was calculated according to the following formula:
(§1) Percent inhibition was calculated flowingly: % inhibition=100−% conversion

In assay [2] the target is T2, recombinant human 17β-HSD2 (Homo sapiens, UniProt P37059).
T2 construct: made in house; host or cells: Sd9 (Sf9) insect cells, baculovirus (Bac to Bac Expression System); fractionated cell extract
T2 sequence (P37059 1-387): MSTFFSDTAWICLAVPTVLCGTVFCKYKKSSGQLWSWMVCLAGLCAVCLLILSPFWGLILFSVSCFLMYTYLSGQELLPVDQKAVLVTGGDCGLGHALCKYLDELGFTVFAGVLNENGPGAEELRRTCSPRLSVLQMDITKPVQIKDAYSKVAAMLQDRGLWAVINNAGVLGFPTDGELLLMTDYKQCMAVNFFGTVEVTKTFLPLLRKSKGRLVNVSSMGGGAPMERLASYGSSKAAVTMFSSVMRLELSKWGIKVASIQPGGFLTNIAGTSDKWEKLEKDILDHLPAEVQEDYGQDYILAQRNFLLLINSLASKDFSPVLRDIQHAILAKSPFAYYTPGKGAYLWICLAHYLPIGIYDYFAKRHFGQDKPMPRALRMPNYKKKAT
Put plainly: Inhibition of recombinant human 17β-HSD2 (conversion of 3H-estradiol to estrone, HPLC). As to conditions: inhibitor 1 μM; 50 nM estradiol, 1 mM NADH, 30 min at RT. It is filed as biochemical. On the procedure: 17β-HSD2 production and isolation: Similarly to 17β-HSD1 the Recombinant baculovirus was generated by the “Bac to Bac Expression System” (Invitrogen). Recombinant bacmid was transfected to Sd9 insect cells using “Cellfectin Reagent” (Invitrogen). 60 h later cells were harvested and supernatant were fractionated by the following protocol: • cells were dissolved into 40 ml of A-buffer (40 mM TRIS, pH8.0, 20% glycerol, 20 μM NAD, 0.4 mM PMSF, 150 mM NaCl, 0.5% dodecyl-β-maltoside+protease inhibitor cocktail) • cells were sonicated • lysate was incubated on ice for 15 min • lysate was centrifuged 5000 rpm 15 min, +4° C. • centrifugation of the supernatant 180 000 g 30 min, +4° C. • pellet was dissolved into 8 ml of A-buffer • not resuspended material was removed by centrifugation 5000 rpm 15 min, +4° C. • the clear supernatant was divided into 100 μl aliquots and were stored frozen until determination of enzymatic activity.
The amount of 17β-HSD2 was analysed by immunoblotting and total protein concentration of each extract batch was determined.
Assay—Inhibition of recombinant human 17β-HSD2: Recombinant protein (4 μg/ml) was incubated in 20 mM KH2PO4 pH 8.5 with 50 nM estradiol (including 800 000 cpm/ml of ^3H-estradiol) and 1 mM NADH for 30 min at RT, in the presence of the potential inhibitor at concentrations 1 μM or 0.1 μM. Inhibitor stock solutions were prepared in DMSO. Final concentration of DMSO was adjusted to 1% in all samples. The enzyme reaction was stopped by addition of 10% trichloroacetic acid (final concentration). Samples were centrifuged in a microtiter plate at 4000 rpm for 10 min. Supernatants were applied to reverse phase HPLC on a Waters Symmetry C18 column, equipped with a Waters Sentry Guard column. Isocratic HPLC runs were performed at RT at a flow rate of 1 ml/min in acetonitrile:water 48:52 as running solvent. Radioactivity was monitored in the eluate by a Packard Flow Scintillation Analyzer. Total radioactivity for estrone and estradiol were determined in each sample and percent conversion of estradiol to estrone was calculated according to the following formula:
as §1

On to `Cc1cnc(NC(=O)CC[C@@H]2c3c[nH]nc3[C@@]3(C)CCC4c5ccccc5CCC4C23)s1` (stereo partly drawn) [Compound 52, 3-((6aS,10S)-6a-methyl-4b,5,6,6a,8,10,10a,10b,11,12-decehydro-7,8-diaza-pentaleno[2,1-1]phenanthren-10-yl}-N-(5-methylthiazol-2-yl)propanamide], for which the inhibition (as a rule, how much of the control response was suppressed) at 1 µM in assay [1] stood at 94%; in assay [2] it was 0%.

Consider `Cc1cnc(NC(=O)CC[C@@H]2c3c[nH]nc3[C@@]3(C)CCC4c5cc(Br)c(O)c(Br)c5CCC4C23)s1` (stereo partly drawn) [Compound 54, 3-((6aS,10S)-1,3-dibromo-2-hydroxy-6a-methyl-4b,5,6,6a,8,10,10a,10b,11,12-decehydro-7,8-diaza-pentaleno[2,1-1]phenanthren-10-yl}-N-(5-methylthiazol-2-yl)propanamide], for which the inhibition at 1 µM was 90% in assay [1] and 13% in assay [2].

With `Cc1cnc(NC(=O)CC[C@@H]2c3c[nH]nc3[C@@]3(C)CCC4c5ccc(O)c([N+](=O)[O-])c5CCC4C23)s1` (stereo partly drawn) [Compound 56, 3-((6aS,10S)-2-Hydroxy-6a-methyl-4-nitro-4b,5,6,6a,8,10,10a,10b,11,12-decehydro-7,8-diaza-pentaleno[2,1-1]phenanthren-10-yl}-N-(5-methylthiazol-2-yl)propanamide], the inhibition at 1 µM came out at 97% in assay [1] and 39% in assay [2].

For `Cc1cnc(NC(=O)CC[C@@H]2C(=C\O)/C(=N\O)[C@@]3(C)CCC4c5ccc(O)cc5CCC4C23)s1` (stereo partly drawn) [Compound 69, 3-{(13S,15S)-3-Hydroxy-17-[(Z)-hydroxyimino]-16-[1-hydroxy-meth-(E)-ylidene]-13-methyl-7,8,9,11,12,13,14,15,16,17-decahydro-6H-cyclopenta[a]phenanthren-15-yl}-N-(5-methylthiazol-2-yl)propanamide], the inhibition at 1 µM came to 98% in assay [1] and 2% in assay [2].

As to `Cc1cnc(NC(=O)CC[C@@H]2C(=C\O)/C(=N\O)[C@@]3(C)CCC4c5ccc(O)c(Br)c5CCC4C23)s1` (stereo partly drawn) [Compound 71, 3-{(13S,15S)-4-Bromo-3-hydroxy-17-[(Z)-hydroxyimino]-16-[1-hydroxy-meth-(E)-ylidene]-13-methyl-7,8,9,11,12,13,14,15,16,17-decahydro-6H-cyclopenta[a]phenanthren-15-yl}-N-(5-methylthiazol-2-yl)propanamide], the inhibition at 1 µM in assay [1] is 82%; in assay [2], 7%.

As to `COc1cc2c(cc1/C(C)=N/O)C1CC[C@]3(C)/C(=N/O)C[C@@H](CCC(=O)Nc4ncc(C)s4)C3C1CC2` (some centres unmarked) [Compound 72], the results for the inhibition at 1 µM in assay [1] and in assay [2] were 77% and 3%, respectively.

With `CO/N=C1\C[C@@H](CCC(=O)Nc2ncc(C)s2)C2C3CCc4cc(OC)ccc4C3CC[C@]12C` (stereo partly drawn) [Compound 74, 3-{(13S,15R)-3-Methoxy-17-[(E)-methoxyimino]-13-methyl-7,8,9,11,12,13,14,15,16,17-decahydro-6H-cyclopenta[a]phenanthren-15-yl}-N-(5-methylthiazol-2-yl)propanamide], the inhibition at 1 µM is 59% in assay [1] and 2% in assay [2].

For `CO/N=C1\C[C@@H](CCC(=O)Nc2ncc(C)s2)C2C3CCc4cc(OC)c(I)cc4C3CC[C@]12C` (stereo partly drawn) [Compound 84, 3-{(13S,15R)-2-iodo-3-methoxy-17-[(E)-methoxyimino]-13-methyl-7,8,9,11,12,13,14,15,16,17-decahydro-6H-cyclopenta[a]phenanthren-15-yl}-N-(5-methylthiazol-2-yl)propanamide], the inhibition at 1 µM in assay [1] was 62%; in assay [2] it was 1%.

As for `CO/N=C1\C[C@@H](CCC(=O)Nc2ncc(C)s2)C2C3CCc4cc(O)c(CN5CCOCC5)cc4C3CC[C@]12C` (stereo partly drawn) [Compound 98, 3-{(13S,15R)-3-Hydroxy-17-[(E)-methoxyimino]-13-methyl-2-morpholin-4-ylmethyl-7,8,9,11,12,13,14,15,16,17-decahydro-6H-cyclopenta[a]phenanthren-15-yl}-N-(5-methylthiazol-2-yl)propanamide], the figures for the inhibition at 1 µM in assay [1] and in assay [2] were 57% and 0%, respectively.

In the case of `CO/N=C1\C[C@@H](CCC(=O)Nc2ncc(C)s2)C2C3CCc4cc(OC(C)=O)ccc4C3CC[C@]12C` (stereo partly drawn) [Compound 100, Acetic acid (13S,15R)-17[(E)-methoxyimino]-13-methyl-15-[2-(5-methylthiazol-2-ylcarbamoyl)-ethyl]-7,8,9,11,12,13,14,15,16,17-decahydro-6H-cyclopenta[a]phenanthren-3-yl ester], the inhibition at 1 µM in assay [1] was determined as 84%; in assay [2] it was 1%.

Regarding `CO/N=C1\C[C@@H](CCC(=O)Nc2ncc(C)s2)C2C3CCc4cc(OC(=O)CN(C)C)ccc4C3CC[C@]12C` (stereo partly drawn) [Compound 101, Dimethylamino-acetic acid (13S,15R)-17[(E)-methoxyimino]-13-methyl-15-[2-(5-methylthiazol-2-ylcarbamoyl)-ethyl]-7,8,9,11,12,13,14,15,16,17-decahydro-6H-cyclopenta[a]phenanthren-3-yl ester], the values for the inhibition at 1 µM in assay [1] and in assay [2] were 88% and 3%, respectively.

`CCO/N=C1\C[C@@H](CCC(=O)Nc2ncc(C)s2)C2C3CCc4cc(O)ccc4C3CC[C@]12C` (stereo partly drawn) [Compound 105, 3-{(13S,15R)-17-[(E)-Ethoxyimino]-3-hydroxy-13-methyl-7,8,9,11,12,13,14,15,16,17-decahydro-6H-cyclopenta[a]phenanthren-15-yl}-N-(5-methylthiazol-2-yl)propanamide]: the figures for the inhibition at 1 µM in assay [1] and in assay [2] were 94% and 3%, respectively.

As for `C=CCO/N=C1\C[C@@H](CCC(=O)Nc2ncc(C)s2)C2C3CCc4cc(O)ccc4C3CC[C@]12C` (stereo partly drawn) [Compound 107, 3-{(13S,15R)-17-[(E)-Allyloxyimino]-3-hydroxyl-13-methyl-7,8,9,11,12,13,14,15,16,17-decahydro-6H-cyclopenta[a]phenanthren-15-yl}-N-(5-methylthiazol-2-yl)propanamide], the inhibition at 1 µM is 70% in assay [1] and 3% in assay [2].

The record behind these values is patent US20170081357A1, “[…] ACTIVE 17-NITROGEN SUBSTITUTED ESTRATREINTHIAZOLE DERIVATIVES AS INHIBITORS OF 17.BETA-HYDROXYSTEROID DEHYDROGENASE” (FORENDO PHARMA LTD, priority 2013, published 2017).
